Results as given in ChEMBL document CHEMBL4257506, “Design, synthesis and antimicrobial activity of usnic acid derivatives” (2018).

Key:
Assay type in all cases: functional
Trichoderma viride = test: Fungicidal activity against Trichoderma viride IAM 5061 by microdilution method
Aspergillus niger = test: Fungicidal activity against Aspergillus niger by microdilution method
Penicillium cyclopium = test: Fungicidal activity against Penicillium verrucosum var. cyclopium food isolate by microdilution method
Aspergillus fumigatus = test: Fungicidal activity against Aspergillus fumigatus ATCC 1022 by microdilution method
Penicillium ochrochloron = test: Fungicidal activity against Penicillium ochrochloron ATCC 9112 by microdilution method
Aspergillus versicolor = test: Fungicidal activity against Aspergillus versicolor ATCC 11730 by microdilution method
Aspergillus ochraceus = test: Fungicidal activity against Aspergillus ochraceus by microdilution method
Talaromyces funiculosus = test: Fungicidal activity against Penicillium funiculosum ATCC 36839 by microdilution method

Row | Structure (SMILES) | MFC (Trichoderma viride) | MFC (Aspergillus niger) | MFC (Penicillium cyclopium) | MFC (Aspergillus fumigatus) | MFC (Penicillium ochrochloron) | MFC (Aspergillus versicolor) | MFC (Aspergillus ochraceus) | MFC (Talaromyces funiculosus)
1 | CC(=O)c1c(O)c(C)c(O)c2c1OC1=CC(=O)/C(=C(/C)NCc3noc(C4CCC(=O)N4)n3)C(=O)[C@@]12C (stereo not given in full) | 1.77 ×10⁻² mmol/ml | 3.54 ×10⁻² mmol/ml | 3.54 ×10⁻² mmol/ml | 3.54 ×10⁻² mmol/ml | 1.77 ×10⁻² mmol/ml | 3.54 ×10⁻² mmol/ml | 3.54 ×10⁻² mmol/ml | 1.77 ×10⁻² mmol/ml
2 | CC(=O)c1c(O)c(C)c(O)c2c1OC1=CC(=O)/C(=C(/C)NCCn3c(=O)c(O)nc4ccccc43)C(=O)[C@@]12C | 1.82 ×10⁻² mmol/ml | 3.64 ×10⁻² mmol/ml | 7.28 ×10⁻² mmol/ml | 3.64 ×10⁻² mmol/ml | 3.64 ×10⁻² mmol/ml | 3.64 ×10⁻² mmol/ml | 1.82 ×10⁻² mmol/ml | 3.64 ×10⁻² mmol/ml
3 | CC(=O)c1c(O)c(C)c(O)c2c1OC1=CC(=O)/C(=C(/C)NCC(=O)NC(CO)C(=O)O)C(=O)[C@@]12C (stereo not given in full) | 1.84 ×10⁻² mmol/ml | 3.69 ×10⁻² mmol/ml | 3.69 ×10⁻² mmol/ml | 3.69 ×10⁻² mmol/ml | 3.69 ×10⁻² mmol/ml | 3.69 ×10⁻² mmol/ml | 3.69 ×10⁻² mmol/ml | 3.69 ×10⁻² mmol/ml
4 | CC(=O)c1c(O)c(C)c(O)c2c1OC1=CC(=O)/C(=C(/C)NCCc3ccc(O)c(O)c3)C(=O)[C@@]12C | 2.09 ×10⁻² mmol/ml | 8.34 ×10⁻² mmol/ml | 4.17 ×10⁻² mmol/ml | 4.17 ×10⁻² mmol/ml | 4.17 ×10⁻² mmol/ml | 4.17 ×10⁻² mmol/ml | 2.09 ×10⁻² mmol/ml | 4.17 ×10⁻² mmol/ml
5 | CC(=O)c1c(O)c(C)c(O)c2c1OC1=CC(=O)/C(=C(/C)NCCS(N)(=O)=O)C(=O)[C@@]12C | 3.55 ×10⁻² mmol/ml | 7.1 ×10⁻² mmol/ml | 7.1 ×10⁻² mmol/ml | 7.1 ×10⁻² mmol/ml | 7.1 ×10⁻² mmol/ml | 7.1 ×10⁻² mmol/ml | 3.55 ×10⁻² mmol/ml | 7.1 ×10⁻² mmol/ml
6 | CC(=O)c1c(O)c(C)c(O)c2c1OC1=CC(=O)/C(=C(/C)NCCc3nnc(-c4ccccc4O)o3)C(=O)[C@@]12C | 1.51 ×10⁻² mmol/ml | 6.02 ×10⁻² mmol/ml | 3.01 ×10⁻² mmol/ml | 3.01 ×10⁻² mmol/ml | 3.01 ×10⁻² mmol/ml | 3.01 ×10⁻² mmol/ml | 1.51 ×10⁻² mmol/ml | 3.01 ×10⁻² mmol/ml
7 | CC(=O)c1c(O)c(C)c(O)c2c1OC1=CC(=O)/C(=C(/C)NCCc3nc(C)no3)C(=O)[C@@]12C | 1.87 ×10⁻² mmol/ml | 3.73 ×10⁻² mmol/ml | 3.73 ×10⁻² mmol/ml | 3.73 ×10⁻² mmol/ml | 3.73 ×10⁻² mmol/ml | 3.73 ×10⁻² mmol/ml | 1.87 ×10⁻² mmol/ml | 3.73 ×10⁻² mmol/ml
8 | CC(=O)C1=C(O)C=C2Oc3c(C(C)=O)c(O)c(C)c(O)c3C2(C)C1=O (stereo not given) | 4.4 ×10⁻² mmol/ml | 8.8 ×10⁻² mmol/ml | 8.8 ×10⁻² mmol/ml | 69.8 ×10⁻² mmol/ml | 8.8 ×10⁻² mmol/ml | 8.8 ×10⁻² mmol/ml | 4.4 ×10⁻² mmol/ml | 8.8 ×10⁻² mmol/ml
9 | c1ccc(-c2ccc(C(c3ccccc3)n3ccnc3)cc2)cc1 (stereo not given) [BIFONAZOLE] | 80 ×10⁻² mmol/ml | 64 ×10⁻² mmol/ml | 48 ×10⁻² mmol/ml | 64 ×10⁻² mmol/ml | 64 ×10⁻² mmol/ml | 64 ×10⁻² mmol/ml | 80 ×10⁻² mmol/ml | 80 ×10⁻² mmol/ml
10 | COCCc1noc(CCN/C(C)=C2\C(=O)C=C3Oc4c(C(C)=O)c(O)c(C)c(O)c4[C@@]3(C)C2=O)n1 | 2.01 ×10⁻² mmol/ml | 4.02 ×10⁻² mmol/ml | 4.02 ×10⁻² mmol/ml | 4.02 ×10⁻² mmol/ml | 4.02 ×10⁻² mmol/ml | 4.02 ×10⁻² mmol/ml | 2.01 ×10⁻² mmol/ml | 4.02 ×10⁻² mmol/ml
11 | CC(=O)N1CCN(c2ccc(OCC3COC(Cn4ccnc4)(c4ccc(Cl)cc4Cl)O3)cc2)CC1 (stereo not given) [KETOCONAZOLE] | 570 ×10⁻² mmol/ml | 95 ×10⁻² mmol/ml | 94 ×10⁻² mmol/ml | 95 ×10⁻² mmol/ml | 380 ×10⁻² mmol/ml | 380 ×10⁻² mmol/ml | 95 ×10⁻² mmol/ml | 95 ×10⁻² mmol/ml
12 | COc1ccc2nc(NC(=O)CN/C(C)=C3\C(=O)C=C4Oc5c(C(C)=O)c(O)c(C)c(O)c5[C@@]4(C)C3=O)sc2c1 | 1.77 ×10⁻² mmol/ml | 14.95 ×10⁻² mmol/ml | 14.95 ×10⁻² mmol/ml | 14.95 ×10⁻² mmol/ml | 14.95 ×10⁻² mmol/ml | 7.1 ×10⁻² mmol/ml | 14.95 ×10⁻² mmol/ml | 14.95 ×10⁻² mmol/ml
13 | CC(=O)NCCN/C(C)=C1\C(=O)C=C2Oc3c(C(C)=O)c(O)c(C)c(O)c3[C@@]2(C)C1=O | 15.05 ×10⁻² mmol/ml | 15.05 ×10⁻² mmol/ml | 15.05 ×10⁻² mmol/ml | 7.53 ×10⁻² mmol/ml | 7.53 ×10⁻² mmol/ml | 7.53 ×10⁻² mmol/ml | 15.05 ×10⁻² mmol/ml | 7.53 ×10⁻² mmol/ml
14 | CC(=O)c1c(O)c(C)c(O)c2c1OC1=CC(=O)/C(=C(/C)NCc3nc(N)n[nH]3)C(=O)[C@@]12C | 8.82 ×10⁻² mmol/ml | 4.41 ×10⁻² mmol/ml | 8.82 ×10⁻² mmol/ml | 4.41 ×10⁻² mmol/ml | 4.41 ×10⁻² mmol/ml | 4.41 ×10⁻² mmol/ml | 8.82 ×10⁻² mmol/ml | 4.41 ×10⁻² mmol/ml
15 | CC(=O)c1c(O)c(C)c(O)c2c1OC1=CC(=O)/C(=C(/C)NCC(=O)Nc3nccs3)C(=O)[C@@]12C | 3.72 ×10⁻² mmol/ml | 1.86 ×10⁻² mmol/ml | 3.72 ×10⁻² mmol/ml | 3.72 ×10⁻² mmol/ml | 3.72 ×10⁻² mmol/ml | 3.72 ×10⁻² mmol/ml | 1.86 ×10⁻² mmol/ml | 3.72 ×10⁻² mmol/ml
